Measured values reported in the supplement of paper PMC10307832.

Legend:
Experiment in all cases: relative viability (nuclei count vs DMSO), 5 days (fraction); higher = more cells survive
[1] = compound: CCOc1cc2ncc(C#N)c(Nc3ccc(OCc4ccccn4)c(Cl)c3)c2cc1NC(=O)/C=C/CN(C)C [Neratinib] + CC1(C)CCC(c2ccc(Cl)cc2)=C(CN2CCN(c3ccc(C(=O)NS(=O)(=O)c4ccc(N[C@H](CCN5CCOCC5)CSc5ccccc5)c(S(=O)(=O)C(F)(F)F)c4)cc3)CC2)C1 [Navitoclax] (partner 0.5 µM)
Summary of the method: (§1)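 Relative viability was taken as the ratio of nuclei in treated wells to nuclei in vehicle wells. Lung cancer cell lines in 1536-well plates received compounds by pin tool one day after seeding, either one drug alone or a fixed anchor-drug dose plus five library-drug doses (not always all listed) in √10 steps. Nuclei were counted on 4× images after 5 days of treatment, and values are medians of duplicate plates.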

[2] = compound: CCOc1cc2ncc(C#N)c(Nc3ccc(OCc4ccccn4)c(Cl)c3)c2cc1NC(=O)/C=C/CN(C)C [Neratinib] + CCNC(=O)c1noc(-c2cc(C(C)C)c(O)cc2O)c1-c1ccc(CN2CCOCC2)cc1 [Luminespib] (partner 0.01 µM)
Summary of the method: as §1

[3] = compound: CCOc1cc2ncc(C#N)c(Nc3ccc(OCc4ccccn4)c(Cl)c3)c2cc1NC(=O)/C=C/CN(C)C [Neratinib] + COc1cc2c(Oc3ccc(NC(=O)C4(C(=O)Nc5ccc(F)cc5)CC4)cc3F)ccnc2cc1OCCCN1CCOCC1 [Foretinib] (partner 0.25 µM)
Summary of the method: as §1

[4] = compound: CCOc1cc2ncc(C#N)c(Nc3ccc(OCc4ccccn4)c(Cl)c3)c2cc1NC(=O)/C=C/CN(C)C [Neratinib] + C[C@]1(O)C[C@@H](c2nc(-c3ccc4ccc(-c5ccccc5)nc4c3)c3c(N)nccn32)C1 [Linsitinib] (partner 1 µM)
Summary of the method: as §1

## ChaGo-K-1
[1]; first compound 0.01 µM
  relative viability: 0.986
[1]; first compound 0.03162 µM
  relative viability: 1
[1]; first compound 0.1 µM
  relative viability: 1.02
[1]; first compound 0.3162 µM
  relative viability: 0.821
[1]; first compound 1 µM
  relative viability: 0.905
[2]; first compound 0.01 µM
  relative viability: 0.753
[2]; first compound 0.03162 µM
  relative viability: 0.672
[2]; first compound 0.1 µM
  relative viability: 0.604
[2]; first compound 0.3162 µM
  relative viability: 0.595
[3]; first compound 0.01 µM
  relative viability: 0.945
[3]; first compound 0.03162 µM
  relative viability: 1.07
[3]; first compound 0.1 µM
  relative viability: 0.884
[3]; first compound 0.3162 µM
  relative viability: 0.888
[3]; first compound 1 µM
  relative viability: 0.718

## EKVX
[4]; first compound 0.01 µM
  relative viability: 1.12
[4]; first compound 0.03162 µM
  relative viability: 0.85
[4]; first compound 0.1 µM
  relative viability: 0.842
[4]; first compound 0.3162 µM
  relative viability: 0.276
[4]; first compound 1 µM
  relative viability: 0.141
[1]; first compound 0.01 µM
  relative viability: 0.999
[1]; first compound 0.03162 µM
  relative viability: 1.04
[1]; first compound 0.1 µM
  relative viability: 0.831
[1]; first compound 0.3162 µM
  relative viability: 0.305
[1]; first compound 1 µM
  relative viability: 0.205
[2]; first compound 0.01 µM
  relative viability: 0.821
[2]; first compound 0.03162 µM
  relative viability: 0.884
[2]; first compound 0.1 µM
  relative viability: 0.708
[2]; first compound 0.3162 µM
  relative viability: 0.496
[2]; first compound 1 µM
  relative viability: 0.246
[3]; first compound 0.01 µM
  relative viability: 0.697
[3]; first compound 0.03162 µM
  relative viability: 0.952
[3]; first compound 0.1 µM
  relative viability: 0.578
[3]; first compound 0.3162 µM
  relative viability: 0.567
[3]; first compound 1 µM
  relative viability: 0.193

## EMC-BAC-2
[4]; first compound 0.01 µM
  relative viability: 0.834
[4]; first compound 0.03162 µM
  relative viability: 0.775
[4]; first compound 0.1 µM
  relative viability: 0.683
[4]; first compound 0.3162 µM
  relative viability: 0.578
[4]; first compound 1 µM
  relative viability: 0.435
[1]; first compound 0.01 µM
  relative viability: 1.16
[1]; first compound 0.03162 µM
  relative viability: 1.47
[1]; first compound 0.1 µM
  relative viability: 1.01
[1]; first compound 0.3162 µM
  relative viability: 0.993
[1]; first compound 1 µM
  relative viability: 0.811
[2]; first compound 0.01 µM
  relative viability: 1.38
[2]; first compound 0.03162 µM
  relative viability: 1.17
[2]; first compound 0.1 µM
  relative viability: 1.08
[2]; first compound 0.3162 µM
  relative viability: 0.976
[2]; first compound 1 µM
  relative viability: 0.597
[3]; first compound 0.01 µM
  relative viability: 1.19
[3]; first compound 0.03162 µM
  relative viability: 0.99
[3]; first compound 0.1 µM
  relative viability: 0.669
[3]; first compound 1 µM
  relative viability: 0.54

## EPLC-272H
[4]; first compound 0.01 µM
  relative viability: 1.19
[4]; first compound 0.03162 µM
  relative viability: 1.08
[4]; first compound 0.1 µM
  relative viability: 0.999
[4]; first compound 0.3162 µM
  relative viability: 0.711
[4]; first compound 1 µM
  relative viability: 0.872
[1]; first compound 0.01 µM
  relative viability: 1.09
[1]; first compound 0.03162 µM
  relative viability: 0.991
[1]; first compound 0.1 µM
  relative viability: 0.851
[1]; first compound 0.3162 µM
  relative viability: 0.822
[1]; first compound 1 µM
  relative viability: 0.834
[2]; first compound 0.03162 µM
  relative viability: 0.616
[2]; first compound 0.1 µM
  relative viability: 0.464
[2]; first compound 0.3162 µM
  relative viability: 0.315
[2]; first compound 1 µM
  relative viability: 0.135
[3]; first compound 0.03162 µM
  relative viability: 0.431
[3]; first compound 0.1 µM
  relative viability: 0.45
[3]; first compound 0.3162 µM
  relative viability: 0.419
[3]; first compound 1 µM
  relative viability: 0.194

## H3255
[4]; first compound 0.01 µM
  relative viability: 0.963
[4]; first compound 0.03162 µM
  relative viability: 0.961
[4]; first compound 0.1 µM
  relative viability: 0.725
[4]; first compound 0.3162 µM
  relative viability: 0.233
[4]; first compound 1 µM
  relative viability: 0.0969
[1]; first compound 0.01 µM
  relative viability: 0.583
[1]; first compound 0.03162 µM
  relative viability: 0.74
[1]; first compound 0.1 µM
  relative viability: 0.243
[1]; first compound 0.3162 µM
  relative viability: 0.0785
[1]; first compound 1 µM
  relative viability: 0.0934
[2]; first compound 0.01 µM
  relative viability: 0.949
[2]; first compound 0.03162 µM
  relative viability: 0.765
[2]; first compound 0.1 µM
  relative viability: 0.669
[2]; first compound 0.3162 µM
  relative viability: 0.387
[2]; first compound 1 µM
  relative viability: 0.211
[3]; first compound 0.01 µM
  relative viability: 0.976
[3]; first compound 0.03162 µM
  relative viability: 0.425
[3]; first compound 0.1 µM
  relative viability: 0.716
[3]; first compound 0.3162 µM
  relative viability: 0.334
[3]; first compound 1 µM
  relative viability: 0.17

## HARA
[4]; first compound 0.01 µM
  relative viability: 0.94
[4]; first compound 0.03162 µM
  relative viability: 0.91
[4]; first compound 0.1 µM
  relative viability: 0.356
[4]; first compound 0.3162 µM
  relative viability: 0.338
[4]; first compound 1 µM
  relative viability: 0.182
[1]; first compound 0.01 µM
  relative viability: 1.17
[1]; first compound 0.03162 µM
  relative viability: 1.12
[1]; first compound 0.1 µM
  relative viability: 0.562
[1]; first compound 0.3162 µM
  relative viability: 0.922
[1]; first compound 1 µM
  relative viability: 0.644
[2]; first compound 0.01 µM
  relative viability: 0.685
[2]; first compound 0.03162 µM
  relative viability: 0.743
[2]; first compound 0.1 µM
  relative viability: 0.662
[2]; first compound 0.3162 µM
  relative viability: 0.271
[2]; first compound 1 µM
  relative viability: 0.117
[3]; first compound 0.01 µM
  relative viability: 0.973
[3]; first compound 0.03162 µM
  relative viability: 0.91
[3]; first compound 0.3162 µM
  relative viability: 0.496
[3]; first compound 1 µM
  relative viability: 0.375

## HCC-15
[4]; first compound 0.01 µM
  relative viability: 0.894
[4]; first compound 0.03162 µM
  relative viability: 0.913
[4]; first compound 0.1 µM
  relative viability: 0.776
[4]; first compound 0.3162 µM
  relative viability: 0.81
[4]; first compound 1 µM
  relative viability: 0.551
[1]; first compound 0.01 µM
  relative viability: 0.697
[1]; first compound 0.03162 µM
  relative viability: 0.72
[1]; first compound 0.1 µM
  relative viability: 0.666
[1]; first compound 0.3162 µM
  relative viability: 0.625
[2]; first compound 0.01 µM
  relative viability: 0.347
[2]; first compound 0.03162 µM
  relative viability: 0.377
[2]; first compound 0.1 µM
  relative viability: 0.274
[2]; first compound 0.3162 µM
  relative viability: 0.339
[2]; first compound 1 µM
  relative viability: 0.161
[3]; first compound 0.01 µM
  relative viability: 1.07
[3]; first compound 0.03162 µM
  relative viability: 1.21
[3]; first compound 0.3162 µM
  relative viability: 0.885
[3]; first compound 1 µM
  relative viability: 0.66

## HCC-44
[4]; first compound 0.01 µM
  relative viability: 0.724
[4]; first compound 0.03162 µM
  relative viability: 0.697
[4]; first compound 0.1 µM
  relative viability: 0.641
[4]; first compound 1 µM
  relative viability: 0.691
[1]; first compound 0.01 µM
  relative viability: 1.1
[1]; first compound 0.03162 µM
  relative viability: 0.978
[1]; first compound 0.1 µM
  relative viability: 0.867
[1]; first compound 0.3162 µM
  relative viability: 0.951
[1]; first compound 1 µM
  relative viability: 0.917
[2]; first compound 0.01 µM
  relative viability: 1.29
[2]; first compound 0.03162 µM
  relative viability: 1.23
[2]; first compound 0.1 µM
  relative viability: 0.989
[2]; first compound 0.3162 µM
  relative viability: 1.07
[2]; first compound 1 µM
  relative viability: 0.524

## HCC-78
[4]; first compound 0.01 µM
  relative viability: 0.543
[4]; first compound 0.03162 µM
  relative viability: 0.665
[4]; first compound 0.1 µM
  relative viability: 0.483
[4]; first compound 0.3162 µM
  relative viability: 0.338
[4]; first compound 1 µM
  relative viability: 0.241
[1]; first compound 0.01 µM
  relative viability: 0.747
[1]; first compound 0.1 µM
  relative viability: 0.702
[1]; first compound 0.3162 µM
  relative viability: 0.663
[1]; first compound 1 µM
  relative viability: 0.231
[3]; first compound 0.01 µM
  relative viability: 0.561
[3]; first compound 0.03162 µM
  relative viability: 0.555
[3]; first compound 0.1 µM
  relative viability: 0.499
[3]; first compound 0.3162 µM
  relative viability: 0.344
[3]; first compound 1 µM
  relative viability: 0.365
